# Source: ChEMBL document CHEMBL1126732, “Synthesis of and radioligand binding studies with a tritiated pinacidil analogue: receptor interactions of structurally different classes of potassium channel openers and blockers” (J Med Chem, 1993)
# Where a name gives a salt, the structure may show the parent alone.
# Species on record: Rattus norvegicus
# Assay: Vasorelaxant activity expressed as negative logarithm of the concentration causing a 50% inhibition of spontaneous myogenic activity in rat portal vein.
# Type: functional
row,Structure (SMILES),pD2
1,C[C@@H](N/C(=C\[N+](=O)[O-])Nc1cccnc1)C(C)(C)C,6
2,CC1=Nc2ccc(Cl)cc2S(=O)(=O)N1 [DIAZOXIDE],5.5
3,Nc1cc(N2CCCCC2)nc(N)[n+]1OS(=O)(=O)[O-] [MINOXIDIL SULFATE],7.14
4,CC(N/C(=N\C#N)Nc1ccncc1)C(C)(C)C (stereo in doubt; 12) [PINACIDIL ANHYDROUS],6.11
5,CC(N/C(=N\C#N)Nc1ccncc1)C(C)(C)C (stereo in doubt; 11) [PINACIDIL ANHYDROUS],7.47
6,CC1(C)Oc2ccc(C#N)cc2[C@H](OC2=CC(=O)CC2)[C@H]1O,5.26
7,CC1(C)Oc2ccc(C#N)cc2[C@@H](N2CCCC2=O)[C@@H]1O [LEVCROMAKALIM],7.89
8,C[C@H](N/C(=C\[N+](=O)[O-])Nc1cccnc1)C(C)(C)C,7.96
9,CC1(C)Oc2ccc(C#N)cc2[C@@H](OC2=CC(=O)CC2)[C@@H]1O,7.85
10,CCC(C)(C)/N=C(\NC#N)Nc1cccnc1,8.75
11,CC1(C)Oc2ccc(C#N)cc2C(N2CCCC2=O)C1O (configuration not stated) [CROMAKALIM],5.66
12,CC1(C)C=C(n2ccccc2=O)c2cc(C#N)ccc2O1 [BIMAKALIM],8.2
